Source: US20250215029A1 (Recludix Pharma, Inc., priority 2022, published 2025)

biological target: T1, pY705-STAT3 in PBMC (Homo sapiens, UniProt P40763); test: MSD-pSTAT-PBMC Assay (pSTAT3, IL-6 stimulated); assay type: cell-based; conditions: PBMC, compound 3 hrs, then 10 ng/mL IL-6 for 10 min; Table 115; read-out: STAT3
T1 construct: Cryopreserved Peripheral Blood Mononuclear Cells (PBMC) are from AllCells; host or cells: cryopreserved PBMC
How it was run: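 pY705-STAT3 was detected electrochemiluminescently on total-STAT3 capture plates, using lysates of human PBMCs given compound for 3 h and then IL-6 (10 ng/mL, 10 min). Values were background-subtracted against unstimulated wells and set relative to DMSO. IC50 was fitted with variable slope.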

T1 sequence (P40763 whole entry): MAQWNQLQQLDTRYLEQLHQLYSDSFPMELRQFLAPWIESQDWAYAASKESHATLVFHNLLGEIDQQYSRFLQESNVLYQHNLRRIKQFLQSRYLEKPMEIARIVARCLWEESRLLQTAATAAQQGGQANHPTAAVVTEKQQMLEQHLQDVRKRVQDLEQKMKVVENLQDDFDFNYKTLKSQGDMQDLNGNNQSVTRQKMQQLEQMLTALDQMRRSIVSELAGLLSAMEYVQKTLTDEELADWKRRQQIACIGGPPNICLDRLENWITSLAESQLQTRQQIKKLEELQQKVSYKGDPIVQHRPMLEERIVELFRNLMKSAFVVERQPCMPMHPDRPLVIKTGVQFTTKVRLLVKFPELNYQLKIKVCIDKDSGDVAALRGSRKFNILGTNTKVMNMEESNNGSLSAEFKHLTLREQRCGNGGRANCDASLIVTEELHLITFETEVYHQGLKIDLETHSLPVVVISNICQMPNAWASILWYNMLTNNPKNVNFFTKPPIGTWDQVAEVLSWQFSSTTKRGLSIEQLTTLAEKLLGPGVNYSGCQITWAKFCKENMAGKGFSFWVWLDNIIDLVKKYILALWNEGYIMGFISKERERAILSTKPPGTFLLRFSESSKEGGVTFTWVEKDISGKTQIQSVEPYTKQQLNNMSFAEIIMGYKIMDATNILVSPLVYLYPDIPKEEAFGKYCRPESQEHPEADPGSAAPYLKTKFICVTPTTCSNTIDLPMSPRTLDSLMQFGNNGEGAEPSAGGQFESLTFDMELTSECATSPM

Question: Which IC50 does the source give for `CCCCOC(=O)[C@H](C)NP(=O)(Cc1ccc2sc(C(=O)N[C@H]3CCC[C@H]4CC[C@@H](C(=O)N5CC(c6ncccc6C)C5)N4C3=O)cc2c1)Oc1ccccc1` (stereo partly drawn) [Compound 288, butyl (((2-(((3S,6S,9aS)-3-(3-(3-methylpyridin-2-yl)azetidine-1-carbonyl)-5-oxooctahydro-1H-pyrrolo[1,2-a]azepin-6-yl)carbamoyl)benzo [b]thiophen-5-yl)methyl)(phenoxy)phosphoryl)-L-alaninate] here?
Answer: 100 to 1000 nM

Question: Which IC50 does the source give for `CCCOC(=O)[C@H](C)NP(=O)(Cc1ccc2sc(C(=O)N[C@H]3CCC[C@H]4CC[C@@H](C(=O)N5CC(c6cccc(C#N)n6)C5)N4C3=O)cc2c1)Oc1ccccc1` (stereo partly drawn) [Compound 289, propyl (((2-(((3S,6S,9aS)-3-(3-(6-cyanopyridin-2-yl)azetidine-1-carbonyl)-5-oxooctahydro-1H-pyrrolo[1,2-a]azepin-6-yl)carbamoyl)benzo [b]thiophen-5-yl)methyl)(phenoxy)phosphoryl)-L-alaninate] here?
Answer: < 100 nM

Question: How did the IC50 turn out when `CCCOC(=O)[C@H](C)NP(=O)(Cc1ccc2sc(C(=O)N[C@H]3CCC[C@H]4CC[C@@H](C(=O)N5CC(c6nccc(C#N)n6)C5)N4C3=O)cc2c1)Oc1ccccc1` (stereo partly drawn) [Compound 290, propyl (((2-(((3S,6S,9aS)-3-(3-(4-cyanopyrimidin-2-yl)azetidine-1-carbonyl)-5-oxooctahydro-1H-pyrrolo[1,2-a]azepin-6-yl)carbamoyl)benzo [b]thiophen-5-yl)methyl)(phenoxy)phosphoryl)-L-alaninate] was run?
Answer: 100 to 1000 nM

Question: Which IC50 does the source give for `C[C@H](NP(=O)(Cc1ccc2sc(C(=O)N[C@H]3CCC[C@H]4CC[C@@H](C(=O)N5CC(c6cccnc6)C5)N4C3=O)cc2c1)Oc1ccccc1)C(=O)OCCC(F)(F)F` (stereo partly drawn) [Compound 291, 3,3,3-trifluoropropyl (((2-(((3S,6S,9aS)-5-oxo-3-(3-(pyridin-3-yl)azetidine-1-carbonyl)octahydro-1H-pyrrolo[1,2-a]azepin-6-yl)carbamoyl)benzo [b]thiophen-5-yl)methyl)(phenoxy)phosphoryl)-L-alaninate] here?
Answer: < 100 nM

Question: Which IC50 does the source give for `CCCOC(=O)[C@H](C)NP(=O)(Cc1ccc2sc(C(=O)N[C@H]3CCC[C@H]4CC[C@@H](C(=O)N5CC(c6cccnc6)C5)N4C3=O)cc2c1)Oc1c(C)cccc1C` (stereo partly drawn) [Compound 293, propyl ((2,6-dimethylphenoxy) ((2-(((3S,6S,9aS)-5-oxo-3-(3-(pyridin-3-yl)azetidine-1-carbonyl)octahydro-1H-pyrrolo[1,2-a]azepin-6-yl)carbamoyl)benzo [b]thiophen-5-yl)methyl)phosphoryl)-L-alaninate] here?
Answer: < 100 nM

Question: For `CCCOC(=O)C(C)CNP(=O)(Cc1ccc2sc(C(=O)N[C@H]3CCC[C@H]4CC[C@@H](C(=O)N5CC(c6cccnc6)C5)N4C3=O)cc2c1)Oc1ccccc1` (stereo partly drawn) [Compound 294, propyl 2-methyl-3-((((2-(((3S,6S,9aS)-5-oxo-3-(3-(pyridin-3-yl)azetidine-1-carbonyl)octahydro-1H-pyrrolo[1,2-a]azepin-6-yl)carbamoyl)benzo [b]thiophen-5-yl)methyl)(phenoxy)phosphoryl)amino) propanoate], which IC50 is on record?
Answer: 1000 to 3000 nM

Question: With `CCCOC(=O)[C@H](CC)NP(=O)(Cc1ccc2sc(C(=O)N[C@H]3CCC[C@H]4CC[C@@H](C(=O)N5CC(c6cccnc6)C5)N4C3=O)cc2c1)Oc1ccccc1` (stereo partly drawn) [Compound 296, propyl (2S)-2-((((2-(((3S,6S,9aS)-5-oxo-3-(3-(pyridin-3-yl)azetidine-1-carbonyl)octahydro-1H-pyrrolo[1,2-a]azepin-6-yl)carbamoyl)benzo [b]thiophen-5-yl)methyl)(phenoxy)phosphoryl)amino) butanoate] as the molecule, how does the IC50 read?
Answer: < 100 nM

Question: For `Cc1ccncc1C1CN(C(=O)[C@@H]2CC[C@@H]3CCC[C@H](NC(=O)c4cc5cc(C(F)(F)P(=O)(N[C@@H](C)C(=O)OCc6ccccc6)Oc6ccccc6)ccc5s4)C(=O)N32)C1` (stereo partly drawn) [Compound 297, benzyl ((difluoro(2-(((3S,6S,9aS)-3-(3-(4-methylpyridin-3-yl)azetidine-1-carbonyl)-5-oxooctahydro-1H-pyrrolo[1,2-a]azepin-6-yl)carbamoyl)benzo [b]thiophen-5-yl)methyl)(phenoxy)phosphoryl)-L-alaninate], which IC50 is on record?
Answer: 100 to 1000 nM

Question: `Cc1ccncc1C1CN(C(=O)[C@@H]2CC[C@@H]3CCC[C@H](NC(=O)c4cc5cc(CP(=O)(N[C@@H](C)C(=O)OC(C)C)Oc6ccccc6)ccc5s4)C(=O)N32)C1` (stereo partly drawn) [Compound 298, isopropyl (((2-(((3S,6S,9aS)-3-(3-(4-methylpyridin-3-yl)azetidine-1-carbonyl)-5-oxooctahydro-1H-pyrrolo[1,2-a]azepin-6-yl)carbamoyl)benzo [b]thiophen-5-yl)methyl)(phenoxy)phosphoryl)-L-alaninate] was tested. Which IC50 did it give?
Answer: 100 to 1000 nM

Question: For `CCCOC(=O)[C@H](C)NP(=O)(Cc1ccc2sc(C(=O)N[C@H]3CCC[C@H]4CC[C@@H](C(=O)N5CC(c6cnccc6N6CC(OC)C6)C5)N4C3=O)cc2c1)Oc1ccccc1` (stereo partly drawn) [Compound 300, propyl (((2-(((3S,6S,9aS)-3-(3-(4-(3-methoxyazetidin-1-yl)pyridin-3-yl)azetidine-1-carbonyl)-5-oxooctahydro-1H-pyrrolo[1,2-aJazepin-6-yl)carbamoyl)benzo [b]thiophen-5-yl)methyl)(phenoxy)phosphoryl)-L-alaninate], which IC50 is on record?
Answer: < 100 nM

Question: For `CCCOC(=O)[C@H](C)NP(=O)(Cc1ccc2sc(C(=O)N[C@H]3CCC[C@H]4CC[C@@H](C(=O)N5CC(c6cnccc6N6CC[C@H]6COC)C5)N4C3=O)cc2c1)Oc1ccccc1` (stereo partly drawn) [Compound 301, propyl (((2-(((3S,6S,9aS)-3-(3-(4-((S)-2-(methoxymethyl)azetidin-1-yl)pyridin-3-yl)azetidine-1-carbonyl)-5-oxooctahydro-1H-pyrrolo[1,2-a]azepin-6-yl)carbamoyl)benzo [b]thiophen-5-yl)methyl)(phenoxy)phosphoryl)-L-alaninate], which IC50 is on record?
Answer: < 100 nM

Question: `CCCOC(=O)[C@H](C)NP(=O)(Oc1ccccc1)C(F)(F)c1ccc2sc(C(=O)N[C@H]3CCC[C@H]4CC[C@@H](C(=O)N5CC(c6cccnc6)C5)N4C3=O)cc2c1` (stereo partly drawn) [Compound 306, propyl ((difluoro(2-(((3S,6S,9aS)-5-oxo-3-(3-(pyridin-3-yl)azetidine-1-carbonyl)octahydro-1H-pyrrolo[1,2-a]azepin-6-yl)carbamoyl)benzo [b]thiophen-5-yl)methyl)(phenoxy)phosphoryl)-L-alaninate] was tested. Which IC50 did it give?
Answer: 1000 to 3000 nM

Question: With `CCCOC(=O)[C@H](C)NP(=O)(Cc1ccc2sc(C(=O)N[C@H]3CCC[C@H]4CC[C@@H](C(=O)N5CC(c6cccnc6)C5)N4C3=O)cc2c1)Oc1ccccc1` (stereo partly drawn) [Compound 307, propyl (((2-(((3S,6S,9aS)-5-oxo-3-(3-(pyridin-3-yl)azetidine-1-carbonyl)octahydro-1H-pyrrolo[1,2-a]azepin-6-yl)carbamoyl)benzo [b]thiophen-5-yl)methyl)(phenoxy)phosphoryl)-L-alaninate] as the molecule, how does the IC50 read?
Answer: > 3000 nM

Question: For `CCCOC(=O)[C@H](C)NP(=O)(Cc1ccc2sc(C(=O)N[C@H]3CCC[C@H]4CC[C@@H](C(=O)N[C@H]5CN(C(C)=O)C[C@@H]5F)N4C3=O)cc2c1)Oc1ccccc1` (stereo partly drawn) [Compound 308, propyl (((2-(((3S,6S,9aS)-3-(((3S,4S)-1-acetyl-4-fluoropyrrolidin-3-yl)carbamoyl)-5-oxooctahydro-1H-pyrrolo[1,2-a]azepin-6-yl)carbamoyl)benzo [b]thiophen-5-yl)methyl)(phenoxy)phosphoryl)-L-alaninate], which IC50 is on record?
Answer: > 3000 nM

Question: Which IC50 does the source give for `CCCOC(=O)[C@H](C)NP(=O)(Cc1ccc2sc(C(=O)N[C@H]3CCC[C@H]4CC[C@@H](C(=O)N[C@H]5CN(C(C)=O)C[C@H]5F)N4C3=O)cc2c1)Oc1ccccc1` (stereo partly drawn) [Compound 309, propyl (((2-(((3S,6S,9aS)-3-(((3S,4R)-1-acetyl-4-fluoropyrrolidin-3-yl)carbamoyl)-5-oxooctahydro-1H-pyrrolo[1,2-a]azepin-6-yl)carbamoyl)benzo [b]thiophen-5-yl)methyl)(phenoxy)phosphoryl)-L-alaninate] here?
Answer: > 3000 nM

Question: How did the IC50 turn out when `CCCOC(=O)[C@@H]1CCCN1P(=O)(Cc1ccc2sc(C(=O)N[C@H]3CCC[C@H]4CC[C@@H](C(=O)N5CC(c6cccnc6)C5)N4C3=O)cc2c1)N1CCC[C@H]1C(=O)OCCC` [Compound 310, dipropyl (((2-(((3S,6S,9aS)-5-oxo-3-(3-(pyridin-3-yl)azetidine-1-carbonyl)octahydro-1H-pyrrolo[1,2-a]azepin-6-yl)carbamoyl)benzo [b]thiophen-5-yl)methyl)phosphoryl) (S)-di-L-prolinate] was run?
Answer: 100 to 1000 nM

Question: With `CCCOC(=O)CC(C)NP(=O)(Cc1ccc2sc(C(=O)N[C@H]3CCC[C@H]4CC[C@@H](C(=O)N5CC(c6cccnc6)C5)N4C3=O)cc2c1)Oc1ccccc1` (stereo partly drawn) [Compound 311, propyl 3-((((2-(((3S,6S,9aS)-5-oxo-3-(3-(pyridin-3-yl)azetidine-1-carbonyl)octahydro-1H-pyrrolo[1,2-a]azepin-6-yl)carbamoyl)benzo [b]thiophen-5-yl)methyl)(phenoxy)phosphoryl)amino) butanoate] as the molecule, how does the IC50 read?
Answer: > 3000 nM

Question: Which IC50 does the source give for `CCCOC(=O)[C@H](C)NP(=O)(Oc1ccccc1)C(C)(F)c1ccc2sc(C(=O)N[C@H]3CCC[C@H]4CC[C@@H](C(=O)N5CC(c6cccnc6)C5)N4C3=O)cc2c1` (stereo partly drawn) [Compound 313, propyl ((1-fluoro-1-(2-(((3S,6S,9aS)-5-oxo-3-(3-(pyridin-3-yl)azetidine-1-carbonyl)octahydro-1H-pyrrolo[1,2-a]azepin-6-yl)carbamoyl)benzo [b]thiophen-5-yl)ethyl)(phenoxy)phosphoryl)-L-alaninate] here?
Answer: 1000 to 3000 nM

same assay, conditions: STAT3, PBMC, compound 3 hrs, then 10 ng/mL IL-6 for 10 min; Table 115

Question: How did the IC50 turn out when `CCCCOC(=O)[C@@H]1CC(F)(F)CN1P(=O)(Cc1ccc2sc(C(=O)N[C@H]3CCC[C@H]4CC[C@@H](C(=O)N5CC(c6cccnc6)C5)N4C3=O)cc2c1)Oc1ccccc1` (stereo partly drawn) [Compound 295, butyl (2S)-4,4-difluoro-1-(((2-(((3S,6S,9aS)-5-oxo-3-(3-(pyridin-3-yl)azetidine-1-carbonyl)octahydro-1H-pyrrolo[1,2-a]azepin-6-yl)carbamoyl)benzo [b]thiophen-5-yl)methyl)(phenoxy)phosphoryl) pyrrolidine-2-carboxylate] was run?
Answer: 1000 to 3000 nM
